# According to patent US8569281B2, “Compounds and their administration for treating a neurodegenerative disease as well as a method for identifying a compound capable of inhibiting a kinase, such as LRRK” (Medical Research Council Technology, priority 2010, dated 2013):
# Target: LRRK2 (Homo sapiens (Human), UniProt Q5S007)
# Test: In Vitro LRRK2 Assay (LabChip 3000, fluorescently-labeled peptide substrate)
# Assay type: biochemical
# Conditions: ATP 130 μM, substrate 1 μM, 2 hours, ambient temperature; LRRK2 variant not given; read-out: Ki (μM), affinity values for LRRK2
# Description: This assay was used to determine a compound's potency in inhibiting activity of LRRK2 by determining, Kiapp, IC50, or percent inhibition values. In a polypropylene plate, LRRK2, fluorescently-labeled peptide substrate, ATP and test compound were incubated together. Using a LabChip 3000 (Caliper Life Sciences), after the reaction the substrate was separated by capillary electrophoresis into two populations: phosphorylated and unphosphorylated. The relative amounts of each were quantitated by fluorescence intensity. LRRK2 Ki was determined according to the equation: Y=V0*(1−((x+Ki*(1+S/Km)+Et)/(2*Et)−(((x+Ki*(1+S/Km)+Et)^2−(4*Et*x))^0.5)/(2*Et))).
# Ki values in Table 4 and elsewhere herein are shown in μM.
# Assay conditions and materials used were as follows:
# Compound Plate Preparation:
# For serial dilutions, 34.6 μl DMSO was added to columns 3-24.
# Total and Blank Preparation:
# In Complete Reaction Buffer, substrate was diluted to 4 μM. Equal volumes of Complete Reaction Buffer and 4 μM substrate were combined to obtain the blank. Equal volumes of Complete Reaction Buffer and 4 μM substrate were combined and to the combined solution was added 2× final LRRK2 concentration.
# To a 50 μl polypropylene plate, 5 μl/well buffer/substrate was added by hand to Blank wells. A Biomek FX was used to start the kinase reaction (“PLK SAR 23 ATP”). The following were added to the appropriate wells: • 2 μl compound+23 μl ATP; • 5 μl/well compound/ATP in Assay Plate; • 5 μl/well kinase/substrate in Assay Plate;
# The plate was incubated for 2 hours in the dark. Biomek FX was used to stop the kinase reaction (“PLK Stop”), and 10 μl/well Stop solution was added to the Assay Plate. Results were read on the LabChip 3000.
# The LabChip 3000 was run using the job “LRRK2 IC50” with the following job settings: • Pressure: −1.4 psi • Downstream voltage: −500 V • Upstream voltage: −2350 V • Post sample buffer sip time: 75 seconds • Post dye buffer sip time: 75 seconds • Final delay time: 200 seconds Parkinson's Disease Animal Model
# Sequence of LRRK2 (Q5S007 whole entry G2019S): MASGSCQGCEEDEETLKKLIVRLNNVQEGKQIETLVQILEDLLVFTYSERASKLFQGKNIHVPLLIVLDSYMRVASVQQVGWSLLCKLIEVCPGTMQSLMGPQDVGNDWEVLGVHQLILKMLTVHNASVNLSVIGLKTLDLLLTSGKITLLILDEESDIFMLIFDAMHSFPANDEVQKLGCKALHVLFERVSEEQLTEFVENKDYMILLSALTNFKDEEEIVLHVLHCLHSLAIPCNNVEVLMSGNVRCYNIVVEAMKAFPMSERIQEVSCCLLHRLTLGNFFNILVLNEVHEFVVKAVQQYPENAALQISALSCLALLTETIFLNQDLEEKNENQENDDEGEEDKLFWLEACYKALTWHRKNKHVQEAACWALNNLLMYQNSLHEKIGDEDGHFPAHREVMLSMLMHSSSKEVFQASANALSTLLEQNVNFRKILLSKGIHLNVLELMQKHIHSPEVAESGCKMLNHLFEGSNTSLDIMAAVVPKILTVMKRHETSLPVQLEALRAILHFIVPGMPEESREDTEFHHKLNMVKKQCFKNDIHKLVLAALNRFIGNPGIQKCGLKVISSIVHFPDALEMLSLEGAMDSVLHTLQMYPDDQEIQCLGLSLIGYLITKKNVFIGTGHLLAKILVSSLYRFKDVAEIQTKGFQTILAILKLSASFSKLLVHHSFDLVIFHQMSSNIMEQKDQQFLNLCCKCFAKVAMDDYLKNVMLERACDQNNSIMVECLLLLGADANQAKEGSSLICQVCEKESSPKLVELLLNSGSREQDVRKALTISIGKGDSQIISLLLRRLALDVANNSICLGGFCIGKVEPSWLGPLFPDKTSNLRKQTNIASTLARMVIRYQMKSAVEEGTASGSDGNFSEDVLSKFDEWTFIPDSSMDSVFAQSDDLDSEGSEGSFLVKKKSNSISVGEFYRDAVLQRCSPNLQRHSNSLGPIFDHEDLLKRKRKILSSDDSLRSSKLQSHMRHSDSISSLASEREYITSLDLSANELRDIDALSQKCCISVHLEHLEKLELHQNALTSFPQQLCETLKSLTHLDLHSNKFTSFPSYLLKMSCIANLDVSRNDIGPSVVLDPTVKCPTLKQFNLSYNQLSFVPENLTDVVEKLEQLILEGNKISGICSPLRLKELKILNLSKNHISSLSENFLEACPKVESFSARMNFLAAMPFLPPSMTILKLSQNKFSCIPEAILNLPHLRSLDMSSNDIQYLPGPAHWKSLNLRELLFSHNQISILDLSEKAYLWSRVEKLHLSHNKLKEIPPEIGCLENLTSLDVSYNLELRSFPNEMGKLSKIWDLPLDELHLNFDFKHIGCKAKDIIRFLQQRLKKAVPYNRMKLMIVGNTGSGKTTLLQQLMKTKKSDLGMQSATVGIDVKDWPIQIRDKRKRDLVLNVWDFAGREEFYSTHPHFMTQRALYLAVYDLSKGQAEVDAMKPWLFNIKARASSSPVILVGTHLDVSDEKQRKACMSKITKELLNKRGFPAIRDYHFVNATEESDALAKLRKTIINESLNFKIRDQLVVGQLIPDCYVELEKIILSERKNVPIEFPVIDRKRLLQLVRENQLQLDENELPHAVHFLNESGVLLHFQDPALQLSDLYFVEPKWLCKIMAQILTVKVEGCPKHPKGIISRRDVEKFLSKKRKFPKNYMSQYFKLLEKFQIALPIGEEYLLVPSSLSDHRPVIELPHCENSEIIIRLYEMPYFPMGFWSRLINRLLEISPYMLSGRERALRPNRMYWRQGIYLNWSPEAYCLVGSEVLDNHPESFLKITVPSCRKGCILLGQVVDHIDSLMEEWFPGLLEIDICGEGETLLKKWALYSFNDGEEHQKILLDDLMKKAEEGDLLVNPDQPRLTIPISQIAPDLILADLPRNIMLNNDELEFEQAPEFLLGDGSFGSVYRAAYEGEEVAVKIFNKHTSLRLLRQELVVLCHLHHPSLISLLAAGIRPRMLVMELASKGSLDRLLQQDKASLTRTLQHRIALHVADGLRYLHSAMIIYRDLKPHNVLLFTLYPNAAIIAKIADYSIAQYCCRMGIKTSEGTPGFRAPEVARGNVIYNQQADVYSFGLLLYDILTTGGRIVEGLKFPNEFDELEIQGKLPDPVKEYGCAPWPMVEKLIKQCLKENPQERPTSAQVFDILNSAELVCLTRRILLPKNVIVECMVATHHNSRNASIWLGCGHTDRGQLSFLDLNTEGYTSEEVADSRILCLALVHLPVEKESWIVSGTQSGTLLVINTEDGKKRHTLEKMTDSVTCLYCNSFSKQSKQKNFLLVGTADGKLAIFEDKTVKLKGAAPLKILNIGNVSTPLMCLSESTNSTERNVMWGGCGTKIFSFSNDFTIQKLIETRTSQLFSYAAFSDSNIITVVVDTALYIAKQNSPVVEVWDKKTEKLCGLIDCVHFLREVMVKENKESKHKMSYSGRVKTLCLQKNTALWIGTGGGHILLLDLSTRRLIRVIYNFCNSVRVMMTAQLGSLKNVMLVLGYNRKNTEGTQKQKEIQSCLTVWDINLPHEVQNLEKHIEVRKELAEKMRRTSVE
row,Compound,Ki [µM]
1,COc1nccc2[nH]nc(-c3cnn(C4COC4)c3)c12 [Example 86],0.031
2,"COc1nccc2[nH]nc(-c3cnn(CC(F)(F)F)c3)c12 [Example 88, 4-Methoxy-3-(1-(2,2,2-trifluoroethyl)-1H-pyrazol-4-yl)-1H-pyrazolo[4,3-u]pyridine]",0.025
3,"COc1nccc2[nH]nc(-c3cnn(CC4(C)COC4)c3)c12 [Example 89, 4-Methoxy-3-(1-((3-methyloxetan-3-yl)methyl)-1H-pyrazol-4-yl)-1H-pyrazolo[4,3-c]pyridine]",0.108
4,"Cc1cc(-c2n[nH]c3ccnc(OC4CCOCC4)c23)cc(C)n1 [Example 100, 3-(2,6-Dimethylpyridin-4-yl)-4-(tetrahydro-2H-pyran-4-yloxy)-1H-pyrazolo[4,3-c]pyridine]",0.005
5,"COc1cc(-c2n[nH]c3ccnc(OC4CCOCC4)c23)ccn1 [Example 101, 3-(2-Methoxypyridin-4-yl)-4-(tetrahydro-2H-pyran-4-yloxy)-1H-pyrazolo[4,3-c]pyridine]",0.022
6,"COc1cc(-c2n[nH]c3ccnc(OC)c23)ccn1 [Example 106, 4-Methoxy-3-(2-methoxypyridin-4-yl)-1H-pyrazolo[4,3-c]pyridine]",0.08
7,"COc1nccc2[nH]nc(-c3ccnc(N4CCOCC4)c3)c12 [Example 107, 4-(4-(4-Methoxy-1H-pyrazolo[4,3-c]pyridin-3-yl)pyridin-2-yl)morpholine]",0.029
8,"COc1nccc2[nH]nc(-c3ccnc(C(F)(F)F)c3)c12 [Example 108, 4-Methoxy-3-(2-(trifluoromethyl)pyridin-4-yl)-1H-pyrazolo[4,3-c]pyridine]",0.075
9,"COc1nccc2n[nH]c(-c3ccc(C(=O)N4CCOCC4)c(Cl)c3)c12 [Example 109, (2-Chloro-4-(4-methoxy-1H-pyrazolo[4,3-c]pyridin-3-yl)phenyl)(morpholino)methanone]",0.209
10,"c1cc(-c2n[nH]c3ccnc(OC4CCOCC4)c23)cc(N2CCCC2)n1 [Example 110, 3-(2-(Pyrrolidin-1-yl)pyridin-4-yl)-4-(tetrahydro-2H-pyran-4-yloxy)-1H-pyrazolo[4,3-c]pyridine]",0.003
11,"CC1CCCN(c2cc(-c3n[nH]c4ccnc(OC5CCOCC5)c34)ccn2)C1 (centres unmarked) [Example 111, 3-(2-(3-Methylpiperidin-1-yl)pyridin-4-yl)-4-(tetrahydro-2H-pyran-4-yloxy)-1H-pyrazolo[4,3-c]pyridine]",0.006
12,"COc1nccc2[nH]nc(-c3ccnc(N4[C@@H]5CC[C@H]4COC5)c3)c12 [Example 117, 8-(4-(4-Methoxy-1H-pyrazolo[4,3-c]pyridin-3-yl)pyridin-2-yl)-3-oxa-8-azabicyclo[3.2.1]octane]",0.08
13,"COc1nccc2[nH]nc(-c3ccnc(N4C[C@@H]5C[C@H]4CO5)c3)c12 [Example 118, (1S,4S)-5-(4-(4-Methoxy-1H-pyrazolo[4,3-c]pyridin-3-yl)pyridin-2-yl)-2-oxa-5-azabicyclo[2.2.1]heptanes]",0.051
14,"COc1nccc2[nH]nc(-c3ccnc(N4CCCC4)c3)c12 [Example 119, 4-Methoxy-3-(2-(pyrrolidin-1-yl)pyridin-4-yl)-1H-pyrazolo[4,3-c]pyridine]",0.026
15,"COc1nccc2[nH]nc(-c3ccnc(-c4cnn(C)c4)c3)c12 [Example 121, 4-Methoxy-3-(2-(1-methyl-1H-pyrazol-4-yl)pyridin-4-yl)-1H-pyrazolo[4,3-c]pyridine]",0.042
16,"Clc1ccccc1C#Cc1[nH]nc2ccnc(OC3CCOCC3)c12 [Example 132, 3-((2-Chlorophenyl)ethynyl)-4-(tetrahydro-2H-pyran-4-yloxy)-1H-pyrazolo[4,3-c]pyridine]",0.005
17,"O=C(c1ccc(-c2[nH]nc3ccnc(OC4CCOCC4)c23)cc1)N1CCOCC1 [Example 133, Morpholino(4-(4-(tetrahydro-2H-pyran-4-yloxy)-1H-pyrazolo[4,3-c]pyridin-3-yl)phenyl)methanone]",0.076
18,"CN(C)C(=O)c1ccc(-c2[nH]nc3ccnc(OC4CCOCC4)c23)cc1F [Example 135, 2-Fluoro-N,N-dimethyl-4-(4-(tetrahydro-2H-pyran-4-yloxy)-1H-pyrazolo[4,3-c]pyridin-3-yl)benzamide]",0.104
19,"c1cc2[nH]nc(-c3ccc4cn[nH]c4c3)c2c(OC2CCOCC2)n1 [Example 138, 3-(1H-Indazol-6-yl)-4-(tetrahydro-2H-pyran-4-yloxy)-1H-pyrazolo[4,3-c]pyridine]",0.013
20,"c1cc2[nH]nc(-c3ccc4nc[nH]c4c3)c2c(OC2CCOCC2)n1 [Example 139, 3-(1H-Benzo[d]imidazol-6-yl)-4-(tetrahydro-2H-pyran-4-yloxy)-1H-pyrazolo[4,3-c]pyridine]",0.014
21,"CC(C)n1cc2ccc(-c3n[nH]c4ccnc(OC5CCOCC5)c34)cc2n1 [Example 143, 3-(2-isopropyl-2H-indazol-6-yl)-4-(tetrahydro-2H-pyran-4-yloxy)-1H-pyrazolo[4,3-c]pyridine]",0.032
22,"Cn1cnc2cc(-c3n[nH]c4ccnc(OC5CCOCC5)c34)ccc21 [Example 145, 3-(1-methyl-1H-benzo[d]imidazol-5-yl)-4-(tetrahydro-2H-pyran-4-yloxy)-1H-pyrazolo[4,3-c]pyridine]",0.036

# Results, then the compound that gave them:
row,Ki [µM],Compound
1,0.065,"c1cc(-c2n[nH]c3ccnc(OC4CCOCC4)c23)nc(N2CCOCC2)n1 [Example 84, 4-(4-(4-(tetrahydro-2H-pyran-4-yloxy)-1H-pyrazolo[4,3-c]pyridin-3-yl)pyrimidin-2-yl)morpholine]"
2,0.011,"c1cc2[nH]nc(-c3cnn(CC4CCOCC4)c3)c2c(OC2CCOCC2)n1 [Example 93, 3-(1-((Tetrahydro-2H-pyran-4-yl)methyl)-1H-pyrazol-4-yl)-4-(tetrahydro-2H-pyran-4-yloxy)-1H-pyrazolo[4,3-c]pyridine]"
3,0.006,"FC(F)(F)Cn1cc(-c2n[nH]c3ccnc(OC4CCOCC4)c23)cn1 [Example 96, 4-(tetrahydro-2H-pyran-4-yloxy)-3-(1-(2,2,2-trifluoroethyl)-1H-pyrazol-4-yl)-1H-pyrazolo[4,3-c]pyridine]"
4,0.005,"c1cc2[nH]nc(-c3cnn(C4CCOC4)c3)c2c(OC2CCOCC2)n1 (centres unmarked) [Example 98, 4-(Tetrahydro-2H-pyran-4-yloxy)-3-(1-(tetrahydrofuran-3-yl)-1H-pyrazol-4-yl)-1H-pyrazolo[4,3-c]pyridine]"
5,0.046,"Fc1c(-c2n[nH]c3ccnc(OC4CCOCC4)c23)ccnc1N1CCOCC1 [Example 103, 4-(3-Fluoro-4-(4-(tetrahydro-2H-pyran-4-yloxy)-1H-pyrazolo[4,3-c]pyridin-3-yl)pyridin-2-yl)morpholine]"
6,0.136,"c1cc(-c2n[nH]c3ccnc(OC4CCOCC4)c23)cc(NC2COC2)n1 [Example 113, N-(Oxetan-3-yl)-4-(4-(tetrahydro-2H-pyran-4-yloxy)-1H-pyrazolo[4,3-c]pyridin-3-yl)pyridin-2-amine]"
7,0.009,"c1cc(-c2n[nH]c3ccnc(OC4CCOCC4)c23)cc(N2CCC2)n1 [Example 114, 3-(2-(Azetidin-1-yl)pyridin-4-yl)-4-(tetrahydro-2H-pyran-4-yloxy)-1H-pyrazolo[4,3-c]pyridine]"
8,0.01,"Cn1cc(-c2cc(-c3n[nH]c4ccnc(OC5CCOCC5)c34)ccn2)cn1 [Example 116, 3-(2-(1-Methyl-1H-pyrazol-4-yl)pyridin-4-yl)-4-(tetrahydro-2H-pyran-4-yloxy)-1H-pyrazolo[4,3-c]pyridine]"
9,0.034,"c1cc2[nH]nc(-c3ccc4ncn(C5CCOC5)c4c3)c2c(OC2CCOCC2)n1 (centres unmarked) [Example 128, 4-(Tetrahydro-2H-pyran-4-yloxy)-3-(1-(tetrahydrofuran-3-yl)-1H-benzo[d]imidazol-6-yl)-1H-pyrazolo[4,3-c]pyridine]"
10,0.01,"c1cc2[nH]nc(-c3ccc4c(c3)ncn4C3CCOC3)c2c(OC2CCOCC2)n1 (centres unmarked) [Example 129, 4-(tetrahydro-2H-pyran-4-yloxy)-3-(1-(tetrahydrofuran-3-yl)-1H-benzo[d]imidazol-5-yl)-1H-pyrazolo[4,3-c]pyridine]"
11,0.013,"Cn1ncc2cc(-c3n[nH]c4ccnc(OC5CCOCC5)c34)ccc21 [Example 140, 3-(1-Methyl-1H-indazol-5-yl)-4-(tetrahydro-2H-pyran-4-yloxy)-1H-pyrazolo[4,3-c]pyridine]"
12,0.005,"c1cc2[nH]nc(-c3cnn([C@@H]4CCOC4)c3)c2c(OC2CCOCC2)n1 [Example 146, (R)-4-(Tetrahydro-2H-pyran-4-yloxy)-3-(1-(tetrahydrofuran-3-yl)-1H-pyrazol-4-yl)-1H-pyrazolo[4,3-c]pyridine]"
13,0.003,"c1cc2[nH]nc(-c3cnn([C@H]4CCOC4)c3)c2c(OC2CCOCC2)n1 [Example 147, (S)-4-(tetrahydro-2H-pyran-4-yloxy)-3-(1-(tetrahydrofuran-3-yl)-1H-pyrazol-4-yl)-1H-pyrazolo[4,3-c]pyridine]"
